Data on three molecules can be found in US20120093947A1, “METHOD OF TREATING REACTIVE AIRWAY DISEASE” (UNITED STATES DEPARTMENT OF VETERANS AFFAIRS, priority 2009, published 2012).

Series [1] deals with T1, MPO (Homo sapiens, UniProt P05164). The series is described as follows: EPR spin trapping of GS radicals (DMPO/SG adduct) with MPO/H2O2. The format is biochemical. Also noted: Myeloperoxidase (MPO) from human leucocytes (lyophilized powder); purchased Axxora, LLC (San Diego, Calif.). Particulars: 2 μM fenoterol, 4 mM GSH, 18 mM DMPO, pH 7.0. The method, then: (§1) The sample is transferred to a flat aqueous EPR cell and recording is started one minute after initiation of the reaction. The spectra of DMPO adducts are recorded using the same parameters as above but the sweeping rate is 8 mT/41.92 s. The EPR spectra of ascorbate radicals are obtained using microwave power 5 mW, modulation amplitude 0.05 mT, scan rate 4 mT/41.92 s. EPR spectra shown are an average of 5 scans and represent results of a typical experiment.
Spectrum e is the same reaction as spectrum d with the exception that no GSH is used.
The EPR spectrum generated in the presence of 2 μM fenoterol (FIG. 3, section B, spectrum a) is approximately a two-fold more intense than that observed in the presence of 80 μM salbutamol (FIG. 3, section A, spectrum b). This confirms the higher reactivity of a metabolite(s) derived from fenoterol. […] The higher stimulatory action of fenoterol, when compared to that of salbutamol, implies that the compound's resorcinol moiety may play a dominating role in the interaction with GSH. The proposed cycle of redox reactions involving fenoterol, AscH^− and GSH is depicted in reaction B, presented earlier.

The target of series [2] is T1, MPO. The series is described as follows: EPR of ascorbate radicals during oxidation of β2-agonists by MPO/H2O2. Particulars: 100 μM ascorbate, MPO 0.01 U/250 μL, H2O2 39 μM, pH 7.0. More on the design: Myeloperoxidase (MPO) from human leucocytes (lyophilized powder); purchased Axxora, LLC (San Diego, Calif.); host or cells: human leucocytes (natural source). The format is biochemical. The method, then:
as §1
Formation of Asc^•− during oxidation of β2-agonists by MPO/H2O2 in the presence of 100 μM AscH^− is investigated by EPR. […] Spectrum A is the EPR of 100 μM ascorbate without additives. Sprectrun B is the EPR spectrum of 100 μM ascorbate in the presence of MPO (0.01 U/250 μL) and H2O2 (39 μM). Spectra C and D are the EPR spectra of 100 μM ascorbate in the presence of MPO (0.01 U/250 μ), H2O2 (39 μM), and 40 μM and 100 μM of salbutamol, respectily. Spectrum E is the EPR spectrum of 100 μM ascorbate in the presence of MPO (0.01 U/250 μL), H2O2 (39 μM) and 20 μM of fenoterol. All reactions occur in pH 7.0 buffer (50 mM) containing DTPA (0.2 mM).

The target in the next series is T2, LPO (Bos taurus, UniProt P80025).
T2 construct: Lactoperoxidase (LPO) from bovine milk (EC 1.11.1.7); purchased Sigma-Aldrich Co. (St. Louis, Mo.); host or cells: bovine milk (natural source)
The series is described as follows: Nitration of salbutamol by LPO/H2O2/NO2−, A410. Particulars: 100 μM salbutamol, 67 nM LPO, 4 mM H2O2, 3.5 mM NaNO2. The format is biochemical, bovine. The procedure: Spectrophotometric Measurements. Spectra are measured using an Agilent diode array spectrophotometer model 8453 (Agilent Technologies, Inc., Santa Clara, Calif.). Nitration of salbutamol is studied by measuring absorption spectra at designated time points following the start of the reaction. Samples are prepared in 100 mM phosphate buffers (pH 7.0). All buffers contained DTPA (100 μM) or are pretreated with Chelex-100 before use, and measurements are performed at ambient temperature of 20° C. Typically, the reaction is started by the addition of a small aliquot of H2O2 or the desired peroxidase. Time course measurements are carried out following changes in absorbance at 410 nm in 30 second intervals versus absorbance at 800 nm, where none of the compounds absorb.
Ascorbate (AscH^−) is an effective natural antioxidant protecting airways from oxidative injury. Cross et al., (1994) Environ. Health Perspect. 102 (suppl. 10):185-191. Its concentration in the respiratory tract lining fluid is estimated to be near 100 μM (Id.). We examine the effect of AscH^− on nitration of 100 μM salbutamol by 67 nM LPO, 4 mM H2O2, and 3.5 mM of NaNO2 by measuring absorption at 410 nm. […] The duration of the lag period depends on AscH^− concentration. […] See, e.g., Reszka et al. (1999) Free Radic. Biol. & Med. 26:669-678.
As noted earlier, methimazole is an antithyroid drug, an effective inhibitor of LPO activity. 100 μM of salbutamol is reacted with 73 nM LPO, 3.5 mM NaNO2, and 4 mM H2O2 at pH buffer 7.0 in the presence of 0, 27, 55, and 109 μM methimazole (shown in FIG. 9, section A, traces a-d, respectively). Traces c and d also indicate by arrow when additional LPO is added to the system. […] In contrast to effects exerted by AscH^− or SCN^−, methimazole-dependent inhibition is permanent and is probably due to inactivation of the enzyme, since a second dose of LPO reactivates the process (FIG. 9, section A, trace c).
Dapsone, an anti-inflammatory and anti-leprotic agent, is a potent inhibitor of LPO and MPO. See, e.g., Kettle et al. (1991) Biochem. Pharmacol. 41(10):1485-1492; Bozeman et al. (1992) Biochem. Pharmacol. 44(2):553-563. 97 μM of salbutamol is reacted with 65 nM LPO, 3.4 mM NaNO2, and 4 mM H2O2 at pH buffer 7.0 in the presence of 0, 2.5, 5, 10, 50, and 100 μM dapsone (shown in FIG. 10, traces a-f, respectively). The arrows in traces d and e of FIG. 10 indicate where additional LPO is added to the system. […] Dapsone at 50 μM inhibited nitration by approximately 86%. Given the high concentrations of NaNO2 and H2O2 used in this system, dapsone appears to be a potent blocker of nitration.
The extent of nitration is expressed as a change in ΔA410 versus control (dapsone omitted) taken as 100% after 10, 30, and 60 minute reactions for LPO, MPO, and EPO nitrating systems, respectively. Results equal the means±SE of at least two measurements. In the LPO system, 100 μM of salbutamol, 3.4 mM of NaNO2, 4 mM of H2O2, and 65 nM of LPO is used. In the MPO system, 50 μM of salbutamol, 5.0 mM of NaNO2, 5 mM of H2O2, and 0.2 U/mL of MPO is used. In the EPO system, 50 μM of salbutamol, 5 mM of NaNO2, 2 mM of H2O2, and 0.075 U/mL of EPO is used. All reactions were carried out in pH 7.0 phosphate buffer containing DMSO (5% v/v). The term “nitrophenols” includes nitrosalbutamol (N-Sal) and salbutamol-derived nitrophenol (N—ArOH).

Series [3] addresses T1, MPO. As to the kind of experiment: Oxidation of β2-agonists by MPO/H2O2, spectrophotometric ΔA315. The format is biochemical. More on the design: Myeloperoxidase (MPO) from human leucocytes (lyophilized powder); purchased Axxora, LLC (San Diego, Calif.); host or cells: human leucocytes (natural source). Particulars: 100 μM AscH−, 200 mU/mL MPO, 50 μM H2O2. The method, then: Spectrophotometric Measurements. Spectra are measured using an Agilent diode array spectrophotometer model 8453 (Agilent Technologies, Inc., Santa Clara, Calif.). Oxidation of β2-agonists is studied by measuring absorption spectra at designated time points following reaction starts. Samples are prepared in 50 mM acetate buffer (pH 5.0), 50 and 100 mM phosphate buffers (pH 7.0 and 8.0) and 100 mM Tris/HCl (pH 9.19). All buffers contain DTPA (100 and 200 μM) and measurements are performed at an ambient temperature of 20° C. The reaction is started by the addition of a small aliquot of H2O2 (2, 5 or 10 μL), or glucose oxidase (1 μL), if glucose/glucose oxidase was used to generate H2O2, to a sample containing a studied compound, peroxidase and, if required, an inhibiting co-factor. Time course measurements are carried out following changes in absorbance at 315 nm in 15 second intervals versus absorbance at 800 nm, where none of the compounds absorb. The 315 nm wavelength is chosen because β2-agonists' oxidation products absorb intensely near 315 nm, and because it is close to the absorption maximum of tyrosine dimers.
The concentration of AscH^− in airway fluid was estimated to be near 100 μM (Id.), so we use concentrations within this physiological range. […] AscH^− affects oxidation of salbutamol and fenoterol similarly, causing delay in the net oxidation of both drugs. A315 increases after a lag period, the duration of which depends on AscH^− concentration. Net oxidation of the drugs occurs only when AscH^− is consumed. […] This is understandable given that the concentration of H2O2 was only 50 μM and the peroxide was used to oxidize both the drugs and AscH^−. […] The proposed mechanisms of inhibition are reactions A and B, shown below, which reveal that recovery of the drug occurs at the expense of AscH^−, which is oxidized to the ascorbate radical (A^•−).
[…]. The extent of oxidation is expressed as ΔA315±SE versus control (in %) during 22 minutes of reaction at 20° C. Values are the mean of at least duplicate determinations.

Series [4] has as its system murine airway smooth muscle cells. The series is described as follows: cAMP production in airway smooth muscle cells, fluorescent detection assay. The format is cell-based. Particulars: 15 minutes, read-out: EC50, stimulation of cAMP synthesis. For orientation: Changes in cAMP serve as a functional read-out for many G protein-coupled receptors.
Procedure: For these studies, cells are grown to near-confluence in 96-well plates. After washing with PBS, cells were treated for 15 minutes with either PBS vehicle or the indicated concentration of isoproterenol. The reaction is then halted using the supplied stop buffer, after which the resultant sample is processed for fluorescent detection per the manufacturer's instructions. The cAMP content for each sample is determined by extrapolating values to a standard curve prepared with known concentrations of cAMP.
For series [5] the following is noted: human. The method, then:
Exhaled breath condensate (“EBC”) samples. EBC samples are collected during 10 min of quiet breathing through a single-use disposable RTube collector (Respiratory Research, Inc., Charlottesville, Va., USA) while subjects are wearing a nose clip. The aluminum sleeve of the device is cooled to an initial temperature of −20° C. prior to collection. After collection, a plunger is used to pool the condensed material within the tube into a single sample (about 1.0 ml). Samples are stored in the reaction tube at a temperature of −80° C. until thawed and processed for analysis.
Mass Spectrometry. The experiment is performed on a Thermo Fisher Scientific LTQ-FT, a hybrid instrument consisting of a linear ion trap and a Fourier transform ion cyclotron resonance mass spectrometer. Liquid chromatography separation of the sample components utilizes a Waters XBridge™ C18 3.5 μm 2.1×100 mm column, Finnigan Surveyor MS pump, and Finnigan Micro AS autosampler. A 200 μL/min gradient elution of water and acetonitrile, both containing 0.1% formic acid, occurs as follows: 5% to 32% acetonitrile in first eight minutes followed by a rapid rise to 95% acetonitrile within the next minute, held at 95% for an additional seven minutes. […]

Counter-ions that a name gives are not always drawn.

T1 sequence (P05164 279-745 limits assumed): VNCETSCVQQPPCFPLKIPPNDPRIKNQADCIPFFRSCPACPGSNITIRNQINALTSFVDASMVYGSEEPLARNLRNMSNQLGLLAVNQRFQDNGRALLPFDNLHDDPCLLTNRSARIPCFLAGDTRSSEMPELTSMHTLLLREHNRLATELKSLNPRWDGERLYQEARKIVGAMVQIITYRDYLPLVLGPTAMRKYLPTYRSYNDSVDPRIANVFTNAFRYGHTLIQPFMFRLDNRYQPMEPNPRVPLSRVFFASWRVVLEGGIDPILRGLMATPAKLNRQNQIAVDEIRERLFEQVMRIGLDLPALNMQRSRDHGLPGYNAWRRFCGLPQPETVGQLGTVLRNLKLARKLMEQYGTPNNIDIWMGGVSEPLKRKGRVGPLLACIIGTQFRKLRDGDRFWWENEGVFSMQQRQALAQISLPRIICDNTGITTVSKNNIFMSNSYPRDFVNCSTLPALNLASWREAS
T1 sequence (P05164 165-273 limits assumed): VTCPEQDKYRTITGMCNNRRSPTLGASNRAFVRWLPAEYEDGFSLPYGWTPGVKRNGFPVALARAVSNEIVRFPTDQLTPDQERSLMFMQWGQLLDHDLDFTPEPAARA

With `CC(Cc1ccc(O)cc1)NCC(O)c1cc(O)cc(O)c1` (stereo not shown) [fenoterol, fenoterol hydrobromide], the “EPR spectrum of DMPO/SG adduct, intensity relative to 80 μM salbutamol” value at MPO [1] is “two-fold”. Besides, on MPO [2] (20 μM fenoterol), the “EPR spectrum of ascorbate radical, more intense than with MPO/H2O2 alone” value was 270%.
On to `O=C1O[C@H]([C@@H](O)CO)C(O)=C1O` [AscH^−, ascorbic acid], for which the “Nitration of salbutamol by LPO/H2O2/NO2− (A410 versus time)” value on LPO (AscH− at near physiological concentrations (55, 88, 109 μM)) is on record as “only transiently inhibits”; on LPO (ascorbate ˜1 mM) it was “completely prevents”. Besides, the “Oxidation of fenoterol by MPO/H2O2 (A315 versus time)” value at MPO [3] (200 μM fenoterol) was “completely inhibited”. For the same molecule, on MPO [3] (1 mM salbutamol), the “Oxidation of salbutamol by MPO/H2O2 (A315 versus time)” value is reported as “completely inhibited”.
For the molecule Salbutamol hemisulfate, the EC50 (usually the concentration needed to bring the measured effect to its halfway point) in series [4] worked out at 0.0248 µM. Besides, the “Salbutamol transformation in vivo (nitrophenol of m/z 255.13 in breath condensate)” value in series [5] was “undergoes oxidation and nitration”. Also, the “EPR spectrum of ascorbate radical, more intense than with MPO/H2O2 alone” value on MPO [2] (40 μM salbutamol) is recorded as “approximately 76%”; at MPO [2] (100 μM salbutamol) it was around 117%.
